This is an account of results in PMC5013046, “A Sex Pheromone Receptor in the Hessian Fly Mayetiola destructor (Diptera, Cecidomyiidae)” (Frontiers in Cellular Neuroscience, 2016).

The assay deals with T1, MdesOR115 (with MdesOrco; HEK293/TMO/MdesOR115) (Mayetiola destructor, UniProt A0A1D8GZG1).
T1 construct: with Odorant receptor coreceptor
T1 sequence (A0A1D8GZG1 1-412): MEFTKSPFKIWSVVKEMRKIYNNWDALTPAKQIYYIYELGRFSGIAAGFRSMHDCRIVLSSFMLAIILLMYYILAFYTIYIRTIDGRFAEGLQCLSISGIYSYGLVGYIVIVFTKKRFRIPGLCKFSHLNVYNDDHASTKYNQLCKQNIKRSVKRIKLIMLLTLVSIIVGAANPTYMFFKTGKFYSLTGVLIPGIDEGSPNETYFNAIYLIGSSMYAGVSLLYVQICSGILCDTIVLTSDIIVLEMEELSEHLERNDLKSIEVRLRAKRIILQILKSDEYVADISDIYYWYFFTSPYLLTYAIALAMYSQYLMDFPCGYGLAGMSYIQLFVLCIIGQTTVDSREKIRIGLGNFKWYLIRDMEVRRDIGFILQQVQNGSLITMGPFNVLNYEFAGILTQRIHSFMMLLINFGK
T1 sequence (A0A1D8GZG0 1-466 partner): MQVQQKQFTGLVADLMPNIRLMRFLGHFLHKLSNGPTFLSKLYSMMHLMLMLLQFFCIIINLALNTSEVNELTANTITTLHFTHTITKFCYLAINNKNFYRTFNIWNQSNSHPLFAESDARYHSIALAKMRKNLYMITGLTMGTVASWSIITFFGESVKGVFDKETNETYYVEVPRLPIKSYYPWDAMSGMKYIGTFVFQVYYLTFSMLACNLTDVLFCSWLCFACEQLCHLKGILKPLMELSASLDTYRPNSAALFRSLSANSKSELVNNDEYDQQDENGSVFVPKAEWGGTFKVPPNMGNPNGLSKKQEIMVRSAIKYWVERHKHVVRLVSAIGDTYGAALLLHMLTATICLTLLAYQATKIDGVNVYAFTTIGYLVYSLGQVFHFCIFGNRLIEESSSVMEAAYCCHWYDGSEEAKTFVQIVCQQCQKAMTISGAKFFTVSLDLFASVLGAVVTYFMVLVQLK
The assay can be described thus: fluorescent calcium assay, HEK293 cells, dose-response. In kind it is cell-based.

A word on the EC50: it is the concentration that produces a half-maximal response. Consider `CC/C=C/C=C/CCCCC[C@H](C)OC(C)=O` [2S-8E,10E-13:OAc, (2S,8E,10E)-8,10-tridecadien-2-yl acetate], for which the 50% effective concentration (EC50) was in the range of 2020 to 3690 nM.
